According to patent US20220154184A1, “INCREASING GENOME STABILITY AND REPROGRAMMING EFFICIENCY OF INDUCED PLURIPOTENT STEM CELLS” (THE TRUSTEES OF COLUMBIA UNIVERSITY IN THE CITY OF NEW YORK, priority 2019, published 2022):
One block for each compound: values may come before it.

Columns and labels:
[1] = tested on: mouse embryonic fibroblasts (MEFs); assay: OSKM reprogramming of MEFs with drug treatment, alkaline phosphatase (AP) staining / sensitivity score; assay type: cell-based
Procedure: For infection, P1 mouse embryonic fibroblasts (MEFs) were thawed and plated at 1×10^6 cells per 10 cm dish on the previous day. Infection proceeded in two rounds with 8 h to 9 h in between. Briefly, cells were incubated with an OSKM/rtta virus mix (1:1), supplemented with 8 ug/ml protamine sulfate (Fisher Scientific #0219472905). The infection mix was removed on the following day and cells were left to recover in fresh MEF media (DMEM HG Thermo Fisher Scientific #10569010 with 10% FBS Atlanta Biologicals #S11150, Glutamax Thermo Fisher Scientific #35050079 and PenStrep Thermo Fisher Scientific 15140163).
Two days after infection, cells were re-plated for transduction efficiency assessment on day 3, molecular analyses on day 5, colony picking on day 16 and alkaline phosphatase (AP) staining on day 20. In each experiment, infected fibroblasts from the different genotypes were replated at multiple densities to allow for optimal reprogramming efficiency. For wild-type cells, 100-300 cells/mm^2 (20-60K per well of a 24 w dish) routinely generated high numbers of iPS cell clones. Besides for wild-type, 20-60K per well of a 24 w dish was also optimal for the Bard1 point mutants, Brca1^tr/+ and all combination mutations with Smarcal1 or 53bp1; Brca1^tr/tr, 53bp1^−/− as well as the heterozygous or homozygous Smarcal1 and 53bp1 single mutants. […] The remaining Brca1^tr/tr53BP1^+/− genotype was re-plated at 450 cells/mm^2 (90K/well of a 24 w dish). These seeding densities were later used to calculate the reprogramming efficiency of each genotype. The OSKM reprogramming factors were induced with 1 ug/ml doxycycline (Sigma #D9891) in mouse embryonic stem (mES) cell media, consisting of Knockout DMEM (Life Technologies #10829-018), supplemented with 15% Knockout Serum Replacement (Life Technologies #10828-028), Glutamax (Thermo Fisher Scientific #35050079), MEM NEAA (Life Technologies #11140050), PenStrep (Thermo Fisher Scientific 15140163), 2-mercaptoetahnol (Life Technologies #21985-023) and […] LIF (eBioscience #34-8521-82). Transduction efficiency was determined on reprogramming day 3 by staining for Sox2 (Stemgent #09-0024) and used in the calculation of reprograming efficiency. The reprogramming experiments with drug treatment used aphidicolin (Sigma #A0781) at 0.2 uM, Ttpotecan (Sigma #T2705) at 10 nM or the DNA PK inhibitor NU7026 (Tocris #2828) at 5 uM for 8 days during reprogramming.
Alternatively, for the induction of two-ended DSBs, cells were subjected to a single dose of 6 Gy IR 1 day post doxycycline-mediated OSKM factor induction. Cells were fixed on reprogramming day 18-20 and stained for alkaline phosphatase with the Vector Red detection kit (Vector Laboratories #SK-5100). Reprogramming efficiency was determined by considering the number of AP-positive colonies per number of infected cells, determined by Sox2 staining at the optimal plating density for each genotype. The sensitivity score in the experiments with aphidicolin, topotecan and IR was calculated as follows: the reprogramming efficiency of wild-type treated cells was determined as described above and normalized to the reprogramming efficiency of wild type untreated cells. The same procedure was applied to each mutant genotype. The sensitivity score was obtained by calculating the ratio of treated wild type (normalized to untreated wild type) to treated mutant (normalized to untreated mutant). A large score corresponds to high sensitivity.

[2] = tested on: wild-type uninfected MEFs; assay: 53bp1 foci immunofluorescence in uninfected fibroblasts treated with aphidicolin; assay type: cell-based, mouse; conditions: 0.2 uM aphidicolin for 3 days
Procedure: Detection of […], phospho RPA(S33) and 53bp1 was performed on reprogramming D5 with the following antibodies: Phospho-RPA2Ser33 (Invitrogen #PA5-39809); Anti-phosphoHistone H2A.X-Ser139 (Millipore #05-636); and 53BP1 Antibody H-300 (Santa Cruz #22760). For detection of Rad51, iPS cell lines were irradiated with 10 Gy and stained with Rad51 (Ab-1) Rabbit pAb (Millipore #PC130) 1.5 h post IR.
The DNA damage observed in the form of phosphorylated H2AX during reprogramming can be the result of global epigenetic remodeling (Hernandez et al., 2018), oxidative stress (Ji et al., 2014) or elevated replication stress (Ruiz et al., 2015). To determine the specific type of DNA damage which is most limiting to iPS cell generation, mouse embryonic fibroblasts (MEFs) were treated during reprogramming with the DNA polymerase inhibitor aphidicolin, which induces one-ended double strand breaks (DSBs), processed by HDR (Rothkamm et al., 2003). To test the effect of aphidicolin on primary cells, uninfected wild type fibroblasts were incubated with 0.2 uM aphidicolin for 3 days and noted an increase in the numbers of 53bp1 foci (FIG. 4B).

- sensitivity of reprogramming ([1]; 53bp1 null cells, 10 nM topotecan for 8 days during reprogramming): reduced sensitivity
- sensitivity of reprogramming ([1]; Brca1^tr/tr53bp1^-/- cells, 10 nM topotecan for 8 days during reprogramming): mild sensitivity
- reprogramming efficiency ([1]; Brca1^tr/tr cells, 10 nM topotecan for 8 days during reprogramming): greatly reduced efficiency
- sensitivity of reprogramming ([1]; wild-type cells, 10 nM topotecan for 8 days during reprogramming): barely sensitive
Structure (SMILES): CC[C@@]1(O)C(=O)OCc2c1cc1n(c2=O)Cc2cc3c(CN(C)C)c(O)ccc3nc2-1 [topotecan]

Structure (SMILES): C[C@@]1(CO)[C@H](O)CC[C@@]2(C)[C@H]1CC[C@H]1C[C@@H]3C[C@@]12CC[C@]3(O)CO [aphidicolin]
- numbers of 53bp1 foci [2]: increase
- sensitivity of reprogramming ([1]; 53bp1^-/- mutants, 0.2 uM aphidicolin for 8 days during reprogramming): less sensitive
- reprogramming efficiency compared to the Brca1^tr/tr genotype ([1]; Brca1^tr/tr53bp1^-/- cells, 0.2 uM aphidicolin for 8 days during reprogramming): improvement of reprogramming efficiency
- sensitivity of reprogramming (colony numbers relative to wild-type) ([1]; Brca1^tr/tr cells, 0.2 uM aphidicolin for 8 days during reprogramming): pronounced sensitivity
- reprogramming efficiency ([1]; wild type cells, 0.2 uM aphidicolin for 8 days during reprogramming): reduced the efficiency of the process

- efficiency of reprogramming ([1]; wild type MEFs, 5 uM DNA PK inhibitor for 8 days during reprogramming): no effect
Structure (SMILES): O=c1cc(N2CCOCC2)oc2c1ccc1ccccc12 [DNA PK inhibitor, NU7026]
